Counter-ions that a name gives are not always drawn. Values belong to the molecule of their own block, whether it stands above or below them.
Tests used:
[1] = Oxidation of arachidonic acid (decreased turbidity and hydroperoxide formation)
[2] = Anti-oxidant activity (comparative Table 6); details: read-out: IC-50 Anti-Oxidant Activity; nd = not detectable at ≤ 500 uM
PLA2 = experiment: Anti-PLA2 activity (comparative Table 6); assay type: biochemical; details: nd = not detectable at ≤ 500 uM; read-out: IC-50 Anti-PLA2 Activity
human synovial PLA2 = target: T1, human synovial PLA2 (Homo sapiens, UniProt P14555); experiment: Inhibition of human synovial PLA2 activity in vitro; assay type: biochemical; details: for IC50: each compound prepared as a sodium salt, FIG. 9, approximately
T1 construct: from tissue; host or cells: human synovial (fluid)
T1 sequence (P14555 21-144): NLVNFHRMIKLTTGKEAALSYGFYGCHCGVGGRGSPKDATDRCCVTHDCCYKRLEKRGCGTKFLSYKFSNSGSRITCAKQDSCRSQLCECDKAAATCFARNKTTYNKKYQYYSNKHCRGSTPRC
Source text: FIG. 9 is a graph illustrating the ability of the compounds of the invention to inhibit PLA2 activity in vitro.

[3] = Auto-oxidation of phosphatidylethanolamine; assay type: biochemical; details: for % Oxidized PE / % Unoxidized PE: 24 hrs; for % Oxidized PE: PE alone 39.3%; for % Unoxidized PE: PE alone 51.1%
[4] = target: T2, human synovial fluid PLA2 (SF-PLA2) (Homo sapiens, UniProt P14555); experiment: Human SF-PLA2 induced mouse paw edema, oral administration; assay type: in vivo; details: for % Increase Weight: control 61%
T2 construct: intra-articular injection of human synovial fluid PLA2 (SF-PLA2) into the mouse paw; from tissue; host or cells: human synovial fluid
T2 sequence (P14555 21-144): T1 sequence (P14555 21-144)
Protocol: The mouse paw edema is inhibited in dose related fashion by increasing concentrations of RISE-1 given orally 1.0 hours before induction of the edema by SF-PLA2.

platelet PLA2 = target: T3, platelet PLA2 (Homo sapiens, UniProt P14555); experiment: In vitro inhibition of PLA2 derived from platelets (FIG. 8); assay type: biochemical
T3 construct: from tissue; host or cells: platelets
T3 sequence (P14555 21-144): T1 sequence (P14555 21-144)

sperm PLA2 = experiment: In vitro inhibition of PLA2 derived from sperm (FIG. 8); assay type: biochemical, human
[5] = test system: human polymorphonuclear leukocytes (PMNs); experiment: Inhibition of arachidonic acid release from prelabelled human PMNs; details: Leukocyte, read-out: % Inhibition of arachidonic acid release
[6] = test system: rat adjuvant induced arthritis; experiment: Rat adjuvant induced arthritis; details: in vivo
human plasma PLA2 = target: T4, human plasma PLA2 (Homo sapiens, UniProt P14555); experiment: In vitro inhibition of PLA2 derived from plasma (FIG. 8); assay type: biochemical
T4 construct: from tissue; host or cells: human plasma
T4 sequence (P14555 21-144): T1 sequence (P14555 21-144)

[7] = RISE-1 10 mg/kg orally 1.0 hours before SF-PLA2
[8] = RISE-1 30 mg/kg orally 1.0 hours before SF-PLA2
[9] = RISE-1 100 mg/kg orally 1.0 hours before SF-PLA2

SMILES: Cc1cc(C(C)(C)C)c(O)c(C(C)(C)C)c1 [BHT, betahydroxytoluene, reference compound]
- Turbidity (430 nm) ([1]; 100 uM, time 0 hrs, control 1.38): 1.31
- Hydroperoxide ([1]; 100 uM, time 0 hrs, control 100): 119 nmols
- Hydroperoxide ([1]; 100 uM, time 24 hrs, control 378): 112 nmols
- Turbidity (430 nm) ([1]; 100 uM, time 24 hrs, control .387): 1.283

SMILES: CCCCCCC(C/C=C\CCCCCCCC(=O)O)OC(=O)/C=C/C(=O)O (centres unmarked) [PX-2]
- IC50 [2]: > 500 µM
- IC50 (PLA2): > 500 µM

SMILES: CCCCCCCC/C=C\CCCCCCCC(=O)OC(C/C=C\CCCCCCCC(=O)O)CCCCCC (centres unmarked) [PX-3, Ricinoleic Acid Oleic Acid Ester]
- IC50 (human synovial PLA2): 5 to 10 µM
- Percent Protection ([3]; 25 μM): 16%
- Percent Protection ([3]; 50 μM): 16%
- Percent Protection ([3]; 100 μM): 13%
- Percent Protection ([3]; 250 μM): 22%
- Percent Protection ([3]; 500 μM): 27%
- IC50 [2]: > 500 µM
- IC50 (PLA2): 7.2 µM

SMILES: CCCCC/C=C\C/C=C\CCCCCCCC(=O)OC(C/C=C\CCCCCCCC(=O)O)CCCCCC (centres unmarked) [PX-4, Ricinoleic Acid Linoleic Acid Ester]
- IC50 (human synovial PLA2): 5 to 10 µM
- Percent Protection ([3]; 25 μM): 13%
- Percent Protection ([3]; 50 μM): 22%
- Percent Protection ([3]; 100 μM): 38%
- Percent Protection ([3]; 250 μM): 53%
- Percent Protection ([3]; 500 μM): 73%
- IC50 [2]: 210 µM
- IC50 (PLA2): 10 µM

SMILES: CCCCCCCC/C=C\CCCCCCCCOC(=O)CCCCCCC/C=C\CC(CCCCCC)OC(=O)/C=C/C(=O)O (centres unmarked) [PX-5, Oleyl Alcohol-Ricinoleate-Fumaric Acid Diester]
- IC50 (human synovial PLA2): 5 to 10 µM
- Percent Protection ([3]; 25 μM): 28%
- Percent Protection ([3]; 50 μM): 24%
- Percent Protection ([3]; 100 μM): 31%
- Percent Protection ([3]; 250 μM): 47%
- Percent Protection ([3]; 500 μM): 62%
- IC50 [2]: 300 µM
- IC50 (PLA2): 5 µM

SMILES: CCCCCCC(O)C/C=C\CCCCCCCC(=O)OC(C/C=C\CCCCCCCC(=O)O)CCCCCC (centres unmarked) [PX-6]
- IC50 [2]: 300 µM
- IC50 (PLA2): 4.5 µM

SMILES: CCCCCCC(C/C=C\CCCCCCCC(=O)O)OC(=O)/C=C/C(=O)OC(C/C=C\CCCCCCCC(=O)O)CCCCCC (centres unmarked) [PX-7, Diricinoleic Acid Fumarate Diester]
- IC50 [2]: 130 µM
- IC50 (PLA2): 7 µM

SMILES: CCCCCCCC/C=C\CCCCCCCCOC(=O)CCCCCCC/C=C\CC(CCCCCC)OC(=O)/C=C\C(=O)O (centres unmarked) [PX-8]
- IC50 [2]: 140 µM
- IC50 (PLA2): 3.5 µM

- ED50 ([4]; mouse, po, administered single dose orally, read-out: IC50 vs PLA2 induced mouse paw edema): ~15 mg/kg
SMILES: CCCCCCCC/C=C\CCCCCCCC(=O)OCC(COC(=O)CCCCCCC/C=C\CCCCCCCC)(COC(=O)CCCCCCC/C=C\CCCCCCCC)NCCS(=O)(=O)O [PX-13, TES Triolears]

SMILES: CCCCC/C=C\C/C=C\CCCCCCCC(=O)OCC(N)(COC(=O)CCCCCCC/C=C\C/C=C\CCCCC)COC(=O)CCCCCCC/C=C\C/C=C\CCCCC [PX-14]
- IC50 [2]: 70 µM
- IC50 (PLA2): 4.4 µM

- IC50 [2]: > 500 µM
SMILES: CCCCC/C=C\C/C=C\CCCCCCCC(=O)OCC1(COC(=O)CCCCCCC/C=C\C/C=C\CCCCC)COC(=O)CN1C(=O)CCCCCCC/C=C\C/C=C\CCCCC [PX-15]

SMILES: CCCCCCC(C/C=C\CCCCCCCC(=O)O)OC(=O)CCCCCCCCC(=O)O (centres unmarked) [RISE-1, Ricinoleic Acid Sebacyl Ester]
- Inhibition of PLA2 derived from platelets (platelet PLA2): dose related, selective in vitro inhibition
- Inhibition of PLA2 derived from sperm (sperm PLA2): dose related, selective in vitro inhibition
- Turbidity (430 nm) ([1]; 25 uM, time 0 hrs, control 1.38): 1.33
- Hydroperoxide ([1]; 25 uM, time 0 hrs, control 100): 109 nmols
- Hydroperoxide ([1]; 25 uM, time 24 hrs, control 378): 437 nmols
- Turbidity (430 nm) ([1]; 25 uM, time 24 hrs, control .387): .524
- Turbidity (430 nm) ([1]; 50 uM, time 0 hrs, control 1.38): 1.47
- Hydroperoxide ([1]; 50 uM, time 0 hrs, control 100): 109 nmols
- Hydroperoxide ([1]; 50 uM, time 24 hrs, control 378): 428 nmols
- Turbidity (430 nm) ([1]; 50 uM, time 24 hrs, control .387): .348
- Inhibition of PLA2 derived from human synovial fluid (human synovial PLA2; FIG. 8): dose related, selective in vitro inhibition
- IC50 (human synovial PLA2): 5 to 10 µM
- % Oxidized PE ([3]; 25 uM): 42.0%
- % Unoxidized PE ([3]; 25 uM): 50.6%
- % Oxidized PE ([3]; 100 uM): 42.4%
- % Unoxidized PE ([3]; 100 uM): 49.6%
- % Protection [4, 7]: 23%
- % Increase Weight [4, 7]: 47%
- % Protection [4, 8]: 38%
- % Increase Weight [4, 8]: 38%
- % Protection [4, 9]: 49%
- % Increase Weight [4, 9]: 31%
- inhibition at 25 µM [5]: 0%
- inhibition at 50 µM [5]: 19%
- inhibition at 75 µM [5]: 38%
- inhibition at 100 µM [5]: 72%
- Inhibition of rat adjuvant induced arthritis [6]: does not inhibit
- Inhibition of PLA2 derived from plasma (human plasma PLA2): dose related, selective in vitro inhibition

From patent US5659049A, “Antioxidant, antiphospholipase derivatives of ricinoleic acid” (Virginia Commonwealth University, priority 1995, dated 1997)
